Patent publication US8067445B2, “N,N-disubstituted aminoalkylbiphenyl antagonists of prostaglandin D2 receptors” (Panmira Pharmaceuticals, LLC, priority 2008, dated 2011)

Molecular target: T1, human DP2 receptor (Homo sapiens, UniProt Q9Y5Y4)
T1 construct: expressed in transfected cells
T1 sequence (Q9Y5Y4 1-395): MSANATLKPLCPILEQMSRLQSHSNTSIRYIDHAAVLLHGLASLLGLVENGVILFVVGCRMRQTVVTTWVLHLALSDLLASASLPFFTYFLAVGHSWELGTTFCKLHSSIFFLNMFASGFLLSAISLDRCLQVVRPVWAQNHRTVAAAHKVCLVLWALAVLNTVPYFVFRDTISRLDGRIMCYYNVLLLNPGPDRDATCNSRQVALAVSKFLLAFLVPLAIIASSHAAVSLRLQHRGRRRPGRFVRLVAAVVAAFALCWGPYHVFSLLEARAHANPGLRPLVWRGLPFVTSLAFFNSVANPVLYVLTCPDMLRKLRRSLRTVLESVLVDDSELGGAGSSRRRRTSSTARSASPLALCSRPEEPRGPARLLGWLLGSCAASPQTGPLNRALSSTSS
Test: DP2/CRTH2 radioligand binding assay ([3H]PGD2)
Conditions: [3H]PGD2 binding, membranes of HEK293 cells expressing human DP2; read-out: hDP2
Procedure: The ability of a compound to bind to the human DP2 receptor is assessed via a radioligand binding assay using [^3H]PGD2. HEK293 cells stably expressing recombinant human DP2 are resuspended in 10 mM Hepes, 7.4 containing 1 mM DTT, lysed and centrifuged at 75,000×g to pellet the membranes. The membranes are resuspended in 10 mM Hepes, 7.4 containing 1 mM DTT and 10% glycerol to approximately 5 mg protein/ml. Membranes (2-10 μg protein/well) are incubated in 96-well plates with 1 nM [^3H]PGD2 and test compound in Assay Buffer (50 mM Hepes, 10 mM MnCl2, 1 mM EDTA, plus or minus 0.2% human serum albumin, pH 7.4) for 60 minutes at room temperature. The reactions are terminated by rapid filtration through Whatman GF/C glass fibre filter plates. The filter plates were pre-soaked in 0.33% polyethylenimine for 30 minutes at room temperature then washed in Wash Buffer (50 mM Hepes, 0.5 M NaCl pH 7.4) prior to harvesting. After harvesting, the filter plates are washed 3 times with 1 ml cold Wash Buffer then dried. Scintillant is then added to the plates and the radioactivity retained on the filters is determined on a Packard TopCount (Perkin Elmer). Specific binding is determined as total radioactive binding minus non-specific binding in the presence of 10 μM PGD2. IC50s were determined using GraphPad prism analysis of drug titration curves.

Compound	IC50 [nM]
CCN(Cc1cc(C(F)(F)F)ccc1-c1cc(CC(=O)O)ccc1OC)C(=O)NCc1ccc(Cl)nc1 [Compound 1-200, {2′-[3-(6-Chloro-pyridin-3-ylmethyl)-1-ethyl-ureidomethyl]-6-methoxy-4′-trifluoromethyl-biphenyl-3-yl}-acetic acid]	< 300
CCN(Cc1cc(C(F)(F)F)ccc1-c1cc(Cl)cc(C(C)C(=O)O)c1)C(=O)C1CC1 (stereo not shown) [Compound 1-212, 2-{5-Chloro-2′-[(cyclopropanecarbonyl-ethyl-amino)-methyl]-4′-trifluoromethyl-biphenyl-3-yl}-propionic acid]	< 300
CCN(Cc1cc(C(F)(F)F)ccc1-c1cc(CC(=O)O)ccc1OC)C(=O)C1(O)CC1 [Compound 1-209, (2′-{[Ethyl-(1-hydroxy-cyclopropanecarbonyl)-amino]-methyl}-6-methoxy-4′-trifluoromethyl-biphenyl-3-yl)-acetic acid]	< 300
CCN(Cc1cc(C(F)(F)F)ccc1-c1cc(CC(=O)O)ccc1OC)C(=O)Cc1ccccc1 [Compound 1-207, {2′-[(Ethyl-phenylacetyl-amino)-methyl]-6-methoxy-4′-trifluoromethyl-biphenyl-3-yl}-acetic acid]	< 300
CCN(Cc1cc(C(F)(F)F)ccc1-c1cc(C(C)C(=O)O)cc(C(F)(F)F)c1)C(=O)C1CC1 (stereo not shown) [Compound 1-214, 2-{2′-[(Cyclopropanecarbonyl-ethyl-amino)-methyl]-5,4′-bis-trifluoromethyl-biphenyl-3-yl}-propionic acid]	< 300
CCN(Cc1cc(C(F)(F)F)ccc1-c1cc(CC(=O)O)ccc1OC)C(=O)c1ccccc1 [Compound 1-80, {2′-[(Benzoyl-ethyl-amino)-methyl]-6-methoxy-4′-trifluoromethyl-biphenyl-3-yl}-acetic acid]	< 300
CCN(Cc1ccc(OC)cc1-c1cc(CC(=O)O)ccc1OC)C(=O)OCc1ccc(F)cc1 [Compound 1-194, (2′-{[Ethyl-(4-fluoro-benzyloxycarbonyl)-amino]-methyl}-6,5′-dimethoxy-biphenyl-3-yl)-acetic acid]	< 300
CCN(Cc1cc(C(F)(F)F)ccc1-c1cc(CC(=O)O)cc(C(F)(F)F)c1)C(=O)OCc1ccc(Cl)cc1 [Compound 1-189, (2′-{[(4-Chloro-benzyloxycarbonyl)-ethyl-amino]-methyl}-5,4′-bis-trifluoromethyl-biphenyl-3-yl)-acetic acid]	< 300
CCN(Cc1cc(C(F)(F)F)ccc1-c1cc(C(C)C(=O)O)cc(C(F)(F)F)c1)C(C)=O (stereo not shown) [Compound 1-213, 2-{2′-[(Acetyl-ethyl-amino)-methyl]-5,4′-bis-trifluoromethyl-biphenyl-3-yl}-propionic acid]	< 300
CCN(Cc1cc(C(F)(F)F)ccc1-c1cc(CC(=O)O)cc(C(F)(F)F)c1)C(=O)NC [Compound 1-202, [2′-(1-Ethyl-3-methyl-ureidomethyl)-5,4′-bis-trifluoromethyl-biphenyl-3-yl]-acetic acid]	< 300
CCN(Cc1cc(C(F)(F)F)ccc1-c1cc(CC(=O)O)cc(C(F)(F)F)c1)C(=O)OCc1ccc(F)cc1 [Compound 1-191, (2′-{[Ethyl-(4-fluoro-benzyloxycarbonyl)-amino]-methyl}-5,4′-bis-trifluoromethyl-biphenyl-3-yl)-acetic acid]	< 300
CCN(Cc1cc(C(F)(F)F)ccc1-c1cc(Cl)cc(C(C)C(=O)O)c1)C(=O)NCc1ccccc1 (stereo not shown) [Compound 1-223, 2-[2′-(3-Benzyl-1-ethyl-ureidomethyl)-5-chloro-4′-trifluoromethyl-biphenyl-3-yl]-propionic acid]	< 300
CCN(Cc1cc(C(F)(F)F)ccc1-c1cc(Cl)cc(C(C)C(=O)O)c1)C(C)=O (stereo not shown) [Compound 1-211, 2-{2′-[(Acetyl-ethyl-amino)-methyl]-5-chloro-4′-trifluoromethyl-biphenyl-3-yl}-propionic acid]	< 300
CCN(Cc1cc(C(F)(F)F)ccc1-c1cc(CC(=O)O)ccc1OC)C(=O)NCc1cccnc1 [Compound 1-198]	< 300
CCN(Cc1cc(C(F)(F)F)ccc1-c1cc(Cl)cc(CC(=O)O)c1)C(=O)NC [Compound 1-201, [5-Chloro-2′-(1-ethyl-3-methyl-ureidomethyl)-4′-trifluoromethyl-biphenyl-3-yl]-acetic acid]	< 300
CCN(Cc1cc(C(F)(F)F)ccc1-c1cc(Cl)cc(CC(=O)O)c1)C(=O)NCc1ccc(Cl)cc1 [Compound 1-192, {5-Chloro-2′-[3-(4-chloro-benzyl)-1-ethyl-ureidomethyl]-4′-trifluoromethyl-biphenyl-3-yl}-acetic acid]	< 300

More lines, now with the values ahead:

IC50 [nM]	Compound
1000 to 30000	CCN(Cc1cc(C(F)(F)F)ccc1-c1cc([C@@H](C)C(=O)N2C(=O)O[C@@H](c3ccccc3)[C@H]2C)cc(C(F)(F)F)c1)C(=O)C1CC1 [Compound 2-15, Cyclopropanecarboxylic acid ethyl-{3′-[(R)-1-methyl-2-((4R,5S)-4-methyl-2-oxo-5-phenyl-oxazolidin-3-yl)-2-oxo-ethyl]-4,5′-bis-trifluoromethyl-biphenyl-2-ylmethyl}-amide]
> 30000	CCN(Cc1cc(C(F)(F)F)ccc1-c1cc([C@@H](C)C(=O)N2C(=O)O[C@@H](c3ccccc3)[C@H]2C)ccc1OC)C(=O)C1CC1 [Compound 2-12, Cyclopropanecarboxylic acid ethyl-{2′-methoxy-5′-[(R)-1-methyl-2-((4R,5S)-4-methyl-2-oxo-5-phenyl-oxazolidin-3-yl)-2-oxo-ethyl]-4-trifluoromethyl-biphenyl-2-ylmethyl}-amide]
< 300	CCN(Cc1cc(SC)ccc1-c1cc(Cl)cc(CC(=O)O)c1)C(=O)C1CC1 [Compound 1-242, {5-Chloro-2′-[(cyclopropanecarbonyl-ethyl-amino)-methyl]-4′-methylsulfanyl-biphenyl-3-yl}-acetic acid]
< 300	CCN(Cc1cc(-c2ccc3ncccc3c2)ccc1-c1cc(CC(=O)O)ccc1OC)C(=O)COc1ccc(Cl)cc1 [Compound 1-232, [2′-({[2-(4-Chloro-phenoxy)-acetyl]-ethyl-amino}-methyl)-6-methoxy-4′-quinolin-6-yl-biphenyl-3-yl]-acetic acid]
< 300	CCN(Cc1cc(C(F)(F)F)ccc1-c1cc([C@H](C)C(=O)O)cc(C(F)(F)F)c1)C(=O)C1CC1 [Compound 1-238, (S)-2-{2′-[(Cyclopropanecarbonyl-ethyl-amino)-methyl]-5,4′-bis-trifluoromethyl-biphenyl-3-yl}-propionic acid]
< 300	CCN(Cc1cc(-c2ccc(F)cn2)ccc1-c1cc(CC(=O)O)ccc1OC)C(=O)C1CC1 [Compound 1-249, [2′-[(Cyclopropanecarbonyl-ethyl-amino)-methyl]-4′-(5-fluoro-pyridin-2-yl)-6-methoxy-biphenyl-3-yl]-acetic acid]
< 300	CCN(Cc1cc(C(F)(F)F)ccc1-c1cc([C@H](C)C(=O)O)cc(C(F)(F)F)c1)C(=O)NCc1ccccc1 [Compound 1-240, (S)-2-[2′-(3-Benzyl-1-ethyl-ureidomethyl)-5,4′-bis-trifluoromethyl-biphenyl-3-yl]-propionic acid]
< 300	CCOc1ccc(-c2ccc(-c3cc(CC(=O)O)ccc3OC)c(CN(CC)C(=O)c3ccccc3)c2)cn1 [Compound 1-254, [2′-[(Benzoyl-ethyl-amino)-methyl]-4′-(6-ethoxy-pyridin-3-yl)-6-methoxy-biphenyl-3-yl]-acetic acid]
1000 to 30000	CCN(Cc1cc(C(F)(F)F)ccc1-c1cc([C@H](C)C(=O)O)ccc1OC)C(=O)C1CC1 [Compound 1-225, (S)-2-{2′-[(Cyclopropanecarbonyl-ethyl-amino)-methyl]-6-methoxy-4′-trifluoromethyl-biphenyl-3-yl}-propionic acid]
300 to 1000	CCN(Cc1cc(C(F)(F)F)ccc1-c1cc(C(F)(F)F)cc(C(C)(C)C(=O)O)c1)C(=O)C1CC1 [Compound 1-236, 2-{2′-[(Cyclopropanecarbonyl-ethyl-amino)-methyl]-5,4′-bis-trifluoromethyl-biphenyl-3-yl}-2-methyl-propionic acid]
< 300	CCN(Cc1cc(-c2ccc3ncccc3c2)ccc1-c1cc(CC(=O)O)ccc1OC)C(=O)C1CC1 [Compound 1-230, {2′-[(Cyclopropanecarbonyl-ethyl-amino)-methyl]-6-methoxy-4′-quinolin-6-yl-biphenyl-3-yl}-acetic acid]
< 300	CCOc1ccc(-c2ccc(-c3cc(CC(=O)O)ccc3OC)c(CN(CC)C(=O)CCc3ccccc3)c2)cn1 [Compound 1-256, (4′-(6-Ethoxy-pyridin-3-yl)-2′-{[ethyl-(3-phenyl-propionyl)-amino]-methyl}-6-methoxy-biphenyl-3-yl)-acetic acid]
